In paper PMC6230509 (Neuropharmacology, 2018):

What was measured:
[1] = biological target: norepinephrine transporter (NET) (Homo sapiens, UniProt P23975); test: NIMH PDSP radioligand competition binding, NET
[2] = biological target: δ-opioid receptor (DOR) (Homo sapiens, UniProt P41143); test: NIMH PDSP radioligand competition binding, DOR
[3] = biological target: T1, D4 (Homo sapiens, UniProt P21917); test: NIMH PDSP radioligand competition binding, D4
T1 sequence (P21917 1-419): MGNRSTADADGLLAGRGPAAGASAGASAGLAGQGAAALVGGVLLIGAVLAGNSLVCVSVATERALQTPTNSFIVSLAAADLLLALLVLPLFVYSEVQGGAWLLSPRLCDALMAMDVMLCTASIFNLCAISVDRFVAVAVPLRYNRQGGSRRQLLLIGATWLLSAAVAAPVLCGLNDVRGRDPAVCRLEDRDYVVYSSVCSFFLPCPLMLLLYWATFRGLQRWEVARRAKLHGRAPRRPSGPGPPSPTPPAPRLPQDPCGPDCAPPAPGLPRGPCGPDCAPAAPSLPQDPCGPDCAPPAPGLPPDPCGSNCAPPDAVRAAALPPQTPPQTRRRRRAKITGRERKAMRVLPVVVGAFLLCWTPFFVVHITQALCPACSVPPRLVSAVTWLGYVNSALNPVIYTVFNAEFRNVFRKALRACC

[4] = biological target: T2, σ2 (Rattus norvegicus, UniProt Q5U3Y7); test: NIMH PDSP radioligand competition binding, σ2
T2 sequence (Q5U3Y7 1-176): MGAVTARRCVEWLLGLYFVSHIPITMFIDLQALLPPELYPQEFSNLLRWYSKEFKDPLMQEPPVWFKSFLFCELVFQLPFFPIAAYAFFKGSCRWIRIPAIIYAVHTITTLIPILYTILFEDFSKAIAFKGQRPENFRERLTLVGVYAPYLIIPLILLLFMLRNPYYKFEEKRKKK

[5] = biological target: T3, α1A (Homo sapiens, UniProt P35348); test: NIMH PDSP radioligand competition binding, α1A
T3 sequence (P35348 1-466): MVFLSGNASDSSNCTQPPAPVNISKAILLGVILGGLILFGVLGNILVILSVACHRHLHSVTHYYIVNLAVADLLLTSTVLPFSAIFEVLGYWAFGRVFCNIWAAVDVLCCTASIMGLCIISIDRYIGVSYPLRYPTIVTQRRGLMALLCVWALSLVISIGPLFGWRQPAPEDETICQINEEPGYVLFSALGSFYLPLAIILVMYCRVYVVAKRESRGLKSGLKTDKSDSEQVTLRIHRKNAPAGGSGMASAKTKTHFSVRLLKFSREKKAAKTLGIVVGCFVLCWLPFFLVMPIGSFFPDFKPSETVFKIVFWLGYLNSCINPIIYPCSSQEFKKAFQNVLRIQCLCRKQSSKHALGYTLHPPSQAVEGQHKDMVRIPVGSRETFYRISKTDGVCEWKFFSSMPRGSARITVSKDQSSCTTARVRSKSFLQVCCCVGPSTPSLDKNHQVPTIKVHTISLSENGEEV

[6] = biological target: σ1 (Rattus norvegicus, UniProt Q9R0C9); test: NIMH PDSP radioligand competition binding, σ1
σ1, sequence (Q9R0C9 whole entry): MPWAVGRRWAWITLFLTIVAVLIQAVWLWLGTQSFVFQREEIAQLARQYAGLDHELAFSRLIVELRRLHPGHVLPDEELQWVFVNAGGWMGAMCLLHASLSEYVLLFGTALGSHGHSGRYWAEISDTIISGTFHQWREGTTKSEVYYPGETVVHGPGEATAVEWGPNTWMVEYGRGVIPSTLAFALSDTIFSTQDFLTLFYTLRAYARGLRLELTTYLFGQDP

[7] = biological target: D3 (Homo sapiens, UniProt P35462); test: NIMH PDSP radioligand competition binding, D3
D3, sequence (P35462 whole entry): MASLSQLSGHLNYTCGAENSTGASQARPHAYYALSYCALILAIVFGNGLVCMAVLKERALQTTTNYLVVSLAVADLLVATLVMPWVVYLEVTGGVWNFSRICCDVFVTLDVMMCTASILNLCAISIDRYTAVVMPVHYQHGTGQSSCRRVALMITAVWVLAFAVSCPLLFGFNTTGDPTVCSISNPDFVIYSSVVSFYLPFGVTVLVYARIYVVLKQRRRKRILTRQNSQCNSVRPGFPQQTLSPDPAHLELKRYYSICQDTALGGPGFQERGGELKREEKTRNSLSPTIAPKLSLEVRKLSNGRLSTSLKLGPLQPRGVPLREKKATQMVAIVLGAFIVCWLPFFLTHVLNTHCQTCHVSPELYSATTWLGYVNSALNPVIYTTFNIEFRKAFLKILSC

[8] = biological target: H3 (Cavia porcellus, UniProt Q9JI35); test: NIMH PDSP radioligand competition binding, H3; parameters: species or system Guinea pig
H3, sequence (Q9JI35 whole entry): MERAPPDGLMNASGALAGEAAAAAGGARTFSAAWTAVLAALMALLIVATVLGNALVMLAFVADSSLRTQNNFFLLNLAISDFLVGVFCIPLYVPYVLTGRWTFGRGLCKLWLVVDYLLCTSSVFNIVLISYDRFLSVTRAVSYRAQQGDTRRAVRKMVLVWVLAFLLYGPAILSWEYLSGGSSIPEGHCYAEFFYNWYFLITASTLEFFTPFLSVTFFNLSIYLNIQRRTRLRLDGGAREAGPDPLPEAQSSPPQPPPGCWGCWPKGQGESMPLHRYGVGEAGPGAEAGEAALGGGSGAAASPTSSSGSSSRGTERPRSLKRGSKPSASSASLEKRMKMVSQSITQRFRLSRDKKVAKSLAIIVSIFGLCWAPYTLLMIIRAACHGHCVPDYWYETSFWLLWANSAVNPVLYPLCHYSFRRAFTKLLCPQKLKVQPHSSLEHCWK

[9] = biological target: T4, 5-HT1A (Homo sapiens, UniProt P08908); test: NIMH PDSP radioligand competition binding, 5-HT1A
T4 sequence (P08908 1-422): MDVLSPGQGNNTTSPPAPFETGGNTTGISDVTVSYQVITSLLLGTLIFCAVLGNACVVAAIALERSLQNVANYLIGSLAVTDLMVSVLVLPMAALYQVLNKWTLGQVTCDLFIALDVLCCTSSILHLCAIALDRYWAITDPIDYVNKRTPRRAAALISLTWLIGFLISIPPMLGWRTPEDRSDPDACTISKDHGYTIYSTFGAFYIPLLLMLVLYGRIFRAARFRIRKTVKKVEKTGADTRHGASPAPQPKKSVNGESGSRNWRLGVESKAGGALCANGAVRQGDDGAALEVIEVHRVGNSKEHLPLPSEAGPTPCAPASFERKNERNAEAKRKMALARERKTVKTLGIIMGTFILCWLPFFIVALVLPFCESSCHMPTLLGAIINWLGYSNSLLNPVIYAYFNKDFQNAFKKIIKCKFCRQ

[10] = biological target: D1 (Homo sapiens, UniProt P21728); test: NIMH PDSP radioligand competition binding, D1
D1, sequence (P21728 whole entry): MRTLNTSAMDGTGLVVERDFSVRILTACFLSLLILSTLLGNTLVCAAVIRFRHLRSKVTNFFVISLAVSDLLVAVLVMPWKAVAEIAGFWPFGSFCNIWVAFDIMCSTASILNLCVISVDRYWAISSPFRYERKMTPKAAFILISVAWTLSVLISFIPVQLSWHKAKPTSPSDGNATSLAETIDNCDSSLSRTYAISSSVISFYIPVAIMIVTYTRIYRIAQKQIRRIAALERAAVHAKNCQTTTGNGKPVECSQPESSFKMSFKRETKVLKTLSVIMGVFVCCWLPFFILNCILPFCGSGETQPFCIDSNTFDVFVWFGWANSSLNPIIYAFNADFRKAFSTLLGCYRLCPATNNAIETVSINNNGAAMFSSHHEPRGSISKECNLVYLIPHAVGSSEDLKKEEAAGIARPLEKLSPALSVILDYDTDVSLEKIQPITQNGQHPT

[11] = biological target: H2 (Homo sapiens, UniProt P25021); test: NIMH PDSP radioligand competition binding, H2
H2, sequence (P25021 whole entry): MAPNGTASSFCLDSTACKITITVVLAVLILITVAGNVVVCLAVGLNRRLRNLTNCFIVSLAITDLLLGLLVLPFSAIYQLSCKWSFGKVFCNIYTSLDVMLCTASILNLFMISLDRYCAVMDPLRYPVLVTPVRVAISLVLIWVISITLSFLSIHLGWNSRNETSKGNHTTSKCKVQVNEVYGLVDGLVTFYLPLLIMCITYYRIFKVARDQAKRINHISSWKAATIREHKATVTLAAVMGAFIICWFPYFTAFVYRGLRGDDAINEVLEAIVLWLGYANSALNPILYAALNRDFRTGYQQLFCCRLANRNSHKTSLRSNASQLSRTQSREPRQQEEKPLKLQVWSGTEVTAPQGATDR

[12] = biological target: 5-HT6 (Homo sapiens, UniProt P50406); test: NIMH PDSP radioligand competition binding, 5-HT6
5-HT6, sequence (P50406 whole entry): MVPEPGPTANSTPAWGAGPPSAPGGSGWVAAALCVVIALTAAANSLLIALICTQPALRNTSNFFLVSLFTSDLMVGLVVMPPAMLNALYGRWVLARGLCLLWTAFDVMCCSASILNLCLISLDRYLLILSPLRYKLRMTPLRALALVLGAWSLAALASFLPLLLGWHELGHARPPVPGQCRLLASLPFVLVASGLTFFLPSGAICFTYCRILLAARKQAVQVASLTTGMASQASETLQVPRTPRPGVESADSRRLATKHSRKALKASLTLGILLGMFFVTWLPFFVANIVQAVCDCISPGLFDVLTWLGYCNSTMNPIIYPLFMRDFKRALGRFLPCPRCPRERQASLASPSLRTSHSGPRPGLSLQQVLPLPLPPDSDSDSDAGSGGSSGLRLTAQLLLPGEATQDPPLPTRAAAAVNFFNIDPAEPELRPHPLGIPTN

[13] = biological target: 5-HT1D (Homo sapiens, UniProt P28221); test: NIMH PDSP radioligand competition binding, 5-HT1D
5-HT1D, sequence (P28221 whole entry): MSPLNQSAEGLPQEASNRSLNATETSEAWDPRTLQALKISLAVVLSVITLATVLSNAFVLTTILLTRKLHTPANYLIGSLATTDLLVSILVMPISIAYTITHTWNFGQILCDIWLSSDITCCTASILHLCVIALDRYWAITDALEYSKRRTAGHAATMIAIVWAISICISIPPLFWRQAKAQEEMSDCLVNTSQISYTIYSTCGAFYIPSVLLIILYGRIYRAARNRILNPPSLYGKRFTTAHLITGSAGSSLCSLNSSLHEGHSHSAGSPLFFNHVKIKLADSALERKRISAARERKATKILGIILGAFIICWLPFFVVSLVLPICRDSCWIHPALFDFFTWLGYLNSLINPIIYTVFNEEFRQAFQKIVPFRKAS

[14] = biological target: serotonin transporter (SERT) (Homo sapiens, UniProt P31645); test: NIMH PDSP radioligand competition binding, SERT
serotonin transporter (SERT), sequence (P31645 whole entry): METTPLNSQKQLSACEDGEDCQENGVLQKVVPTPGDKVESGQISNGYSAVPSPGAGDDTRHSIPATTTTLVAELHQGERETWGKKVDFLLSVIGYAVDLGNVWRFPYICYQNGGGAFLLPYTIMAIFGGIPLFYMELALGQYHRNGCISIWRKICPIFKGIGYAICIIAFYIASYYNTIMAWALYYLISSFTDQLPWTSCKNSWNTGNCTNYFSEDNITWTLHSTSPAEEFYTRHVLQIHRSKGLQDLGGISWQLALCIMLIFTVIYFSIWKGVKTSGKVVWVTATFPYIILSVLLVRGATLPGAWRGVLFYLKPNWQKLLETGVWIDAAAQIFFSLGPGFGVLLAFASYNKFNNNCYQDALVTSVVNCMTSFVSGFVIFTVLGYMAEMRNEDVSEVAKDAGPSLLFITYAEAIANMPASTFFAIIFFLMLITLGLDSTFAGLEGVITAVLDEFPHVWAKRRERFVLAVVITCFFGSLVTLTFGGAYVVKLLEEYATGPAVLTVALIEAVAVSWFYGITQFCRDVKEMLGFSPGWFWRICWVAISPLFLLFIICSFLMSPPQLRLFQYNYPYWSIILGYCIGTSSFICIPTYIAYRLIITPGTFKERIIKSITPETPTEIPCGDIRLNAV

[15] = biological target: 5-HT7 (Homo sapiens, UniProt P34969); test: NIMH PDSP radioligand competition binding, 5-HT7
5-HT7, sequence (P34969 whole entry): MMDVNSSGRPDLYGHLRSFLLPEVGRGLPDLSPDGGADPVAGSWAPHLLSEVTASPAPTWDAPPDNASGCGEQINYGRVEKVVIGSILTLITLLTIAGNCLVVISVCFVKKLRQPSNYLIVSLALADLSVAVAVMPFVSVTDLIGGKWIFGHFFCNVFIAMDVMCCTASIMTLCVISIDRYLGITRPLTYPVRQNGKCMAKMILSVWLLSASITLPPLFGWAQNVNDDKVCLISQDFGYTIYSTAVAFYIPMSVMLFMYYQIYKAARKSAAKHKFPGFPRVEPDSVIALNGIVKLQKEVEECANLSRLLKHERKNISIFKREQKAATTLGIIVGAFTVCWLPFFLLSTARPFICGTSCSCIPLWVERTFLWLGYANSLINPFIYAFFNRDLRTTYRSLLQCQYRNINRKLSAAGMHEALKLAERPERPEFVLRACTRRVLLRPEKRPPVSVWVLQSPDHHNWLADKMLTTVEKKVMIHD

[16] = biological target: T5, α1B (Homo sapiens, UniProt P35368); test: NIMH PDSP radioligand competition binding, α1B
T5 sequence (P35368 1-520): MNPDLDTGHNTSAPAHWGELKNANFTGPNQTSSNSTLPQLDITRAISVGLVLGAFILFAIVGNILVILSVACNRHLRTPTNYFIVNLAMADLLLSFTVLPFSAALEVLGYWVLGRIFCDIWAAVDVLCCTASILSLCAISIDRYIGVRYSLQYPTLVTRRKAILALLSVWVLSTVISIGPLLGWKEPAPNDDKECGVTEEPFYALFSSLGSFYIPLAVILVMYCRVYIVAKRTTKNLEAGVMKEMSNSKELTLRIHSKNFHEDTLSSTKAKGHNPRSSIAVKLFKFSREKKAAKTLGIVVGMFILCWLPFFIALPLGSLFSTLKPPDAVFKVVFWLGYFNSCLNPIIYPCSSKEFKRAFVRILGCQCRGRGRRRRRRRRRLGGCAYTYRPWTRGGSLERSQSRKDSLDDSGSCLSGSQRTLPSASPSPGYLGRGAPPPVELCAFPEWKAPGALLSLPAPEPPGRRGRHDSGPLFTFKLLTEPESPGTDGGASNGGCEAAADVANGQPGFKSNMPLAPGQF

[17] = Binding Affinity (Ki, nM), DOR, [3H]DADLE, cloned human receptor
[18] = Binding Affinity (Ki, nM), [3H]N-methylspiperone, cloned human receptor
[19] = Binding Affinity (Ki, nM), [3H]SCH23390, cloned human receptor
[20] = Binding Affinity (Ki, nM), [3H]tiotidine, cloned human receptor

δ-opioid receptor (DOR), sequence (P41143 whole entry): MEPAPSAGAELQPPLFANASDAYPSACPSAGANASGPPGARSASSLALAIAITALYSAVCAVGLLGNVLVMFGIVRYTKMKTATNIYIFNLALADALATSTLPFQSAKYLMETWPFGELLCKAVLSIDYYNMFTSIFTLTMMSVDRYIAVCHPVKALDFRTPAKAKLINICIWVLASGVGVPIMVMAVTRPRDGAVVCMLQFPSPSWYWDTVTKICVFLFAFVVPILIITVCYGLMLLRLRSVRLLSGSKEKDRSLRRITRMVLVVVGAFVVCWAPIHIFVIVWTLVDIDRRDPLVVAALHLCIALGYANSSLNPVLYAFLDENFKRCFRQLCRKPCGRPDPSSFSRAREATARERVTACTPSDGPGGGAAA
norepinephrine transporter (NET), sequence (P23975 whole entry): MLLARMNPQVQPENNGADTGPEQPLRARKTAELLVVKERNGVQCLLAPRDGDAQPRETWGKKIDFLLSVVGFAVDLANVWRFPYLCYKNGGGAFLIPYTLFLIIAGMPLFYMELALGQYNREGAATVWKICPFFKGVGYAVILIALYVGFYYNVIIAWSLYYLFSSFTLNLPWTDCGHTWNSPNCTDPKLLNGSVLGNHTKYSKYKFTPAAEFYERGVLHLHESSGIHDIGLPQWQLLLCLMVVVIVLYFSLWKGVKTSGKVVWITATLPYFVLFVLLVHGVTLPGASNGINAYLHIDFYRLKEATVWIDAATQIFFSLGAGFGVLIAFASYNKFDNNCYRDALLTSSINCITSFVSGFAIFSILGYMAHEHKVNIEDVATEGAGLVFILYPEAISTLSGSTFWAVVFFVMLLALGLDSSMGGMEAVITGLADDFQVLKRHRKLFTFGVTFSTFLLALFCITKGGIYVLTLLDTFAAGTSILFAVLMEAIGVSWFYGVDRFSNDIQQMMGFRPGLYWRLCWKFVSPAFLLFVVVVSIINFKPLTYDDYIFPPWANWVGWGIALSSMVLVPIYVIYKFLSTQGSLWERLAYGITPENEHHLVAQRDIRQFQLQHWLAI

Row | Structure (SMILES) | Ki [1] | Ki [2, 17] | Ki [3, 18] | Ki [4] | Ki [5] | Ki [6] | Ki [7] | Ki [8] | Ki [9] | Ki [10, 19] | Ki [11, 20] | Ki [12] | Ki [13] | Ki [14] | Ki [15] | Ki [16] | further results
1 | C=CCN(CC=C)CCc1c(-c2ccccc2)[nH]c2ccccc12 [2-Ph-DALT, 2-phenyl-N,N-diallyltryptamine] | 420 nM | 6790 nM | 1000 nM | 717 nM | 75 nM | > 10000 nM | 342 nM | > 10000 nM | 402 nM | 2790 nM | 367 nM | 68 nM | 204 nM | > 10000 nM | > 10000 nM | 904 nM | Ki ([2]; Ki value, δ-opioid, bound stated): < 10000 nM; Ki ([3]; Ki value, bound stated): < 10000 nM; Ki ([10]; Ki value, bound stated): < 10000 nM; Ki ([11]; Ki value, bound stated): < 10000 nM
2 | C=CCN(CC=C)CCc1c[nH]c2cccc(OC(C)=O)c12 [4-AcO-DALT, 4-acetoxy-N,N-diallyltryptamine] | > 10000 nM | > 10000 nM | > 10000 nM | > 10000 nM | > 10000 nM | 299 nM | > 10000 nM | > 10000 nM | 383 nM | > 10000 nM | > 10000 nM | 1790 nM | 801 nM | 1090 nM | 724 nM | > 10000 nM | 
3 | C=CCN(CC=C)CCc1c[nH]c2cccc(O)c12 [4-HO-DALT, 4-hydroxy-N,N-diallyltryptamine] | > 10000 nM | > 10000 nM | > 10000 nM | > 10000 nM | > 10000 nM | 2760 nM | 1570 nM | > 10000 nM | 319 nM | > 10000 nM | > 10000 nM | 213 nM | 693 nM | 5210 nM | 600 nM | > 10000 nM | 
4 | C=CCN(CC=C)CCc1c(C)[nH]c2ccc(F)cc12 [5-F-2-Me-DALT, 5-fluoro-2-methyl-N,N-diallyltryptamine] | > 10000 nM | > 10000 nM | > 10000 nM | 396 nM | 1570 nM | 531 nM | 414 nM | 1400 nM | 318 nM | > 10000 nM | > 10000 nM | 168 nM | 1590 nM | 983 nM | 493 nM | > 10000 nM | SERT affinity, fold reduction by 2-methylation [14]: ~30 fold
5 | C=CCN(CC=C)CCc1c(C)[nH]c2ccc(OC)cc12 [5-MeO-2-Me-DALT, 5-methoxy-2-methyl-N,N-diallyltryptamine] | > 10000 nM | > 10000 nM | > 10000 nM | 1240 nM | 1200 nM | 427 nM | 2400 nM | 1130 nM | 267 nM | > 10000 nM | > 10000 nM | 206 nM | 900 nM | > 10000 nM | > 10000 nM | > 10000 nM | displacement at 10,000 nM ([14]; SERT, [3H]citalopram, at 10,000 nM): < 50%
6 | C=CCN(CC=C)CCc1c[nH]c2c(CC)cccc12 [7-Et-DALT, 7-ethyl-N,N-diallyltryptamine] | 1880 nM | > 10000 nM | > 10000 nM | 136 nM | > 10000 nM | 22 nM | 1080 nM | > 10000 nM | 1010 nM | > 10000 nM | > 10000 nM | > 10000 nM | 2690 nM | 795 nM | > 10000 nM | > 10000 nM | σ1 affinity, fold higher than the parent compound ([6]; relative to DALT): ~5 fold
